From patent US7632811B2, “Analogs of parathyroid hormone” (Societe de Conseils de Recherches et D'Applications …, priority 1995, dated 2009)
Non-standard residues stand in square brackets, D forms with d. Residues, ends and D or L forms follow the SMILES beside them. hArg = N=C(N)NCCCC[C@H](N)C(=O)O; Cha = N[C@@H](CC1CCCCC1)C(=O)O; Aib = CC(C)(N)C(=O)O

Target: T1, PTH receptor present on SaOS-2 (human osteosarcoma cells) (Homo sapiens, UniProt Q03431)
T1 construct: host or cells: SaOS-2 human osteosarcoma cells (intact, confluent monolayers)
T1 sequence (Q03431 27-593): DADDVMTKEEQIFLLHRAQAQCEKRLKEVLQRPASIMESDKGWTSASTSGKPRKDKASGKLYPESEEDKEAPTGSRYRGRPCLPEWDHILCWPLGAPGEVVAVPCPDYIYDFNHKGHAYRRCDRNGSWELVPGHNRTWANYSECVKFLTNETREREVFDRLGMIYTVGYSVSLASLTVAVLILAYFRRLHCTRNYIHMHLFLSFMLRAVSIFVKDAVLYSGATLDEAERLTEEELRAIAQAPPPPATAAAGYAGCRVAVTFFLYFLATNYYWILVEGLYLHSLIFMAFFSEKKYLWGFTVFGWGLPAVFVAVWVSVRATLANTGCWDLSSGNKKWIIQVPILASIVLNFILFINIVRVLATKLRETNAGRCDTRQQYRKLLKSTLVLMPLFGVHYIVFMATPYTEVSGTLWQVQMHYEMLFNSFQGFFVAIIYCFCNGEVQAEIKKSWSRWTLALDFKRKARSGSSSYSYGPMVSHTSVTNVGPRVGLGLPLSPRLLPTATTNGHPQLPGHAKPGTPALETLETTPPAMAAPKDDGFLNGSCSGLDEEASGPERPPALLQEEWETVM
Assay: Binding to PTH receptor on SaOS-2 cells (competition with mono-125I-[Nle8,18,Tyr34(3-125I)]bPTH(1-34)NH2)
Settings: Table I, 2 hrs at room temperature, read-out: Kd (half maximal inhibition of binding of mono-125I-[Nle8,18, Tyr34(3-125I)]bPTH(1-34)NH2)
Method in brief: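 Confluent SaOS-2 cells in 5% FBS RPMI were incubated 2 h at room temperature with 10×10^4 cpm mono-125I-[Nle8,18,Tyr34(3-125I)]bPTH(1-34)NH2 plus competing peptide at 10^−11 to 10^−4 M. After washing, cell-bound radioactivity was counted; Kd taken as half-maximal inhibition of tracer binding.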

Compound | Kd
CC[C@H](C)[C@H](NC(=O)[C@H](CCC(=O)O)NC(=O)[C@H](CO)NC(=O)[C@@H](NC(=O)[C@@H](N)CO)C(C)C)C(=O)N[C@@H](CCC(N)=O)C(=O)N[C@@H](CC(C)C)C(=O)N[C@@H](CCSC)C(=O)N[C@@H](Cc1c[nH]cn1)C(=O)N[C@@H](CC(N)=O)C(=O)N[C@@H](CC(C)C)C(=O)NCC(=O)N[C@@H](CCCCN)C(=O)N[C@@H](Cc1c[nH]cn1)C(=O)N[C@@H](CC(C)C)C(=O)N[C@@H](CC(N)=O)C(=O)N[C@@H](CO)C(=O)N[C@@H](CCSC)C(=O)N[C@@H](CCC(=O)O)C(=O)N[C@@H](CCCNC(=N)N)C(=O)N[C@H](C(=O)N[C@@H](CCC(=O)O)C(=O)N[C@@H](Cc1c[nH]c2ccccc12)C(=O)N[C@@H](CC(C)C)C(=O)N[C@@H](CCCNC(=N)N)C(=O)N[C@@H](CCCCN)C(=O)N[C@@H](CCCCNC(=N)N)C(=O)N[C@@H](CC(C)C)C(=O)N[C@@H](CCC(N)=O)C(=O)N[C@@H](CC(=O)O)C(=O)N[C@H](C(=O)N[C@@H](Cc1c[nH]cn1)C(=O)N[C@@H](CC(N)=O)C(=O)N[C@@H](Cc1ccccc1)C(N)=O)C(C)C)C(C)C [[hArg^27]hPTH(1-34)NH2] (H-SVSEIQLMHNLGKHLNSMERVEWLRK[hArg]LQDVHNF-NH2) | 7 nM
CC[C@H](C)[C@H](NC(=O)[C@H](CCC(=O)O)NC(=O)C(C)(C)NC(=O)[C@@H](NC(=O)[C@@H](N)CO)C(C)C)C(=O)N[C@@H](CCC(N)=O)C(=O)N[C@@H](CC(C)C)C(=O)N[C@@H](CCSC)C(=O)N[C@@H](Cc1c[nH]cn1)C(=O)N[C@@H](CC(N)=O)C(=O)N[C@@H](CC(C)C)C(=O)NCC(=O)N[C@@H](CCCCN)C(=O)N[C@@H](Cc1c[nH]cn1)C(=O)N[C@@H](CC(C)C)C(=O)N[C@@H](CC(N)=O)C(=O)N[C@@H](CO)C(=O)N[C@@H](CCSC)C(=O)N[C@@H](CCC(=O)O)C(=O)N[C@@H](CCCNC(=N)N)C(=O)N[C@H](C(=O)N[C@@H](CCC(=O)O)C(=O)N[C@@H](Cc1c[nH]c2ccccc12)C(=O)N[C@@H](CC(C)C)C(=O)N[C@@H](CCCNC(=N)N)C(=O)N[C@@H](CCCCN)C(=O)N[C@@H](CCCCN)C(=O)N[C@@H](CC(C)C)C(=O)N[C@@H](CCC(N)=O)C(=O)N[C@@H](CC(=O)O)C(=O)N[C@H](C(=O)N[C@@H](Cc1c[nH]cn1)C(=O)N[C@@H](CC(N)=O)C(=O)N[C@@H](Cc1ccccc1)C(N)=O)C(C)C)C(C)C [[Aib^3]hPTH(1-34)NH2] (H-SV[Aib]EIQLMHNLGKHLNSMERVEWLRKKLQDVHNF-NH2) | 4 nM
CC[C@H](C)[C@H](NC(=O)[C@H](CCC(=O)O)NC(=O)[C@H](CO)NC(=O)[C@@H](NC(=O)[C@@H](N)CO)C(C)C)C(=O)N[C@@H](CCC(N)=O)C(=O)N[C@@H](CC(C)C)C(=O)N[C@@H](CCSC)C(=O)N[C@@H](Cc1c[nH]cn1)C(=O)N[C@@H](CC(N)=O)C(=O)N[C@@H](CC(C)C)C(=O)NCC(=O)N[C@@H](CCCCN)C(=O)N[C@@H](Cc1c[nH]cn1)C(=O)N[C@@H](CC(C)C)C(=O)NC(C)(C)C(=O)N[C@@H](CO)C(=O)N[C@@H](CCSC)C(=O)N[C@@H](CCC(=O)O)C(=O)N[C@@H](CCCNC(=N)N)C(=O)N[C@H](C(=O)N[C@@H](CCC(=O)O)C(=O)N[C@@H](Cc1c[nH]c2ccccc12)C(=O)N[C@@H](CC(C)C)C(=O)N[C@@H](CCCNC(=N)N)C(=O)N[C@@H](CCCCN)C(=O)N[C@@H](CCCCN)C(=O)N[C@@H](CC(C)C)C(=O)N[C@@H](CCC(N)=O)C(=O)N[C@@H](CC(=O)O)C(=O)N[C@H](C(=O)N[C@@H](Cc1c[nH]cn1)C(=O)N[C@@H](CC(N)=O)C(=O)N[C@@H](Cc1ccccc1)C(N)=O)C(C)C)C(C)C [[Aib^16]hPTH(1-34)NH2] (H-SVSEIQLMHNLGKHL[Aib]SMERVEWLRKKLQDVHNF-NH2) | 4 nM
CC[C@H](C)[C@H](NC(=O)[C@H](CCC(=O)O)NC(=O)[C@H](CO)NC(=O)[C@@H](NC(=O)[C@@H](N)CO)C(C)C)C(=O)N[C@@H](CCC(N)=O)C(=O)N[C@@H](CC(C)C)C(=O)N[C@@H](CCSC)C(=O)N[C@@H](Cc1c[nH]cn1)C(=O)N[C@@H](CC(N)=O)C(=O)N[C@@H](CC(C)C)C(=O)NCC(=O)N[C@@H](CCCCN)C(=O)N[C@@H](Cc1c[nH]cn1)C(=O)N[C@@H](CC(C)C)C(=O)N[C@@H](CC(N)=O)C(=O)N[C@@H](CO)C(=O)N[C@@H](CCSC)C(=O)N[C@@H](CCC(=O)O)C(=O)N[C@@H](CCCNC(=N)N)C(=O)N[C@H](C(=O)N[C@@H](CCC(=O)O)C(=O)N[C@@H](Cc1c[nH]c2ccccc12)C(=O)N[C@@H](CC1CCCCC1)C(=O)N[C@@H](CCCNC(=N)N)C(=O)N[C@@H](CCCCN)C(=O)N[C@@H](CCCCN)C(=O)N[C@@H](CC1CCCCC1)C(=O)N[C@@H](CCC(N)=O)C(=O)N[C@@H](CCCCN)C(=O)N[C@@H](CC1CCCCC1)C(=O)N[C@@H](Cc1c[nH]cn1)C(=O)N[C@@H](CC(N)=O)C(=O)N[C@@H](Cc1ccccc1)C(N)=O)C(C)C [[Cha^24,28,31, Lys^30]hPTH(1-34)NH2] (H-SVSEIQLMHNLGKHLNSMERVEW[Cha]RKK[Cha]QK[Cha]HNF-NH2) | 500 nM

More lines, in order of falling Kd, values ahead:

Kd | Compound
100 nM | CC[C@H](C)[C@H](NC(=O)[C@H](CCC(=O)O)NC(=O)[C@H](CO)NC(=O)[C@@H](NC(=O)[C@@H](N)CO)C(C)C)C(=O)N[C@@H](CCC(N)=O)C(=O)N[C@@H](CC(C)C)C(=O)N[C@@H](CCSC)C(=O)N[C@@H](Cc1c[nH]cn1)C(=O)N[C@@H](CC(N)=O)C(=O)N[C@@H](CC(C)C)C(=O)NCC(=O)N[C@@H](CCCCN)C(=O)N[C@@H](Cc1c[nH]cn1)C(=O)N[C@@H](CC(C)C)C(=O)N[C@@H](CC(N)=O)C(=O)N[C@@H](CO)C(=O)N[C@@H](CCSC)C(=O)N[C@@H](CCC(=O)O)C(=O)N[C@@H](CCCNC(=N)N)C(=O)N[C@H](C(=O)N[C@@H](CCC(=O)O)C(=O)N[C@@H](Cc1c[nH]c2ccccc12)C(=O)N[C@@H](CC1CCCCC1)C(=O)N[C@@H](CCCNC(=N)N)C(=O)N[C@@H](CCCCN)C(=O)N[C@@H](CCCCN)C(=O)N[C@@H](CC(C)C)C(=O)N[C@@H](CCC(N)=O)C(=O)N[C@@H](CC(=O)O)C(=O)N[C@H](C(=O)N[C@@H](Cc1c[nH]cn1)C(=O)N[C@@H](CC(N)=O)C(=O)N[C@@H](Cc1ccccc1)C(N)=O)C(C)C)C(C)C [[Cha^24]hPTH(1-34)NH2] (H-SVSEIQLMHNLGKHLNSMERVEW[Cha]RKKLQDVHNF-NH2)
20 nM | CC[C@H](C)[C@H](NC(=O)[C@H](CCC(=O)O)NC(=O)[C@H](CO)NC(=O)[C@@H](NC(=O)[C@@H](N)CO)C(C)C)C(=O)N[C@@H](CCC(N)=O)C(=O)N[C@@H](CC1CCCCC1)C(=O)N[C@@H](CCSC)C(=O)N[C@@H](Cc1c[nH]cn1)C(=O)N[C@@H](CC(N)=O)C(=O)N[C@@H](CC(C)C)C(=O)NCC(=O)N[C@@H](CCCCN)C(=O)N[C@@H](Cc1c[nH]cn1)C(=O)N[C@@H](CC(C)C)C(=O)N[C@@H](CC(N)=O)C(=O)N[C@@H](CO)C(=O)N[C@@H](CCSC)C(=O)N[C@@H](CCC(=O)O)C(=O)N[C@@H](CCCNC(=N)N)C(=O)N[C@H](C(=O)N[C@@H](CCC(=O)O)C(=O)N[C@@H](Cc1c[nH]c2ccccc12)C(=O)N[C@@H](CC(C)C)C(=O)N[C@@H](CCCNC(=N)N)C(=O)N[C@@H](CCCCN)C(=O)N[C@@H](CCCCN)C(=O)N[C@@H](CC(C)C)C(=O)N[C@@H](CCC(N)=O)C(=O)N[C@@H](CC(=O)O)C(=O)N[C@H](C(=O)N[C@@H](Cc1c[nH]cn1)C(=O)N[C@@H](CC(N)=O)C(=O)N[C@@H](Cc1ccccc1)C(N)=O)C(C)C)C(C)C [[Cha^7]hPTH(1-34)NH2] (H-SVSEIQ[Cha]MHNLGKHLNSMERVEWLRKKLQDVHNF-NH2)
4 nM | CC[C@H](C)[C@H](NC(=O)[C@H](CCC(=O)O)NC(=O)[C@H](CO)NC(=O)[C@@H](NC(=O)[C@@H](N)CO)C(C)C)C(=O)N[C@@H](CCC(N)=O)C(=O)N[C@@H](CC1CCCCC1)C(=O)N[C@@H](CCSC)C(=O)N[C@@H](Cc1c[nH]cn1)C(=O)N[C@@H](CC(N)=O)C(=O)N[C@@H](CC1CCCCC1)C(=O)NCC(=O)N[C@@H](CCCCN)C(=O)N[C@@H](Cc1c[nH]cn1)C(=O)N[C@@H](CC(C)C)C(=O)NC(C)(C)C(=O)N[C@@H](CO)C(=O)N[C@@H](CCSC)C(=O)N[C@@H](CCC(=O)O)C(=O)N[C@@H](CCCNC(=N)N)C(=O)N[C@H](C(=O)N[C@@H](CCC(=O)O)C(=O)N[C@@H](Cc1c[nH]c2ccccc12)C(=O)N[C@@H](CC(C)C)C(=O)N[C@@H](CCCNC(=N)N)C(=O)N[C@@H](CCCCN)C(=O)N[C@@H](CCCCN)C(=O)N[C@@H](CC(C)C)C(=O)N[C@@H](CCC(N)=O)C(=O)N[C@@H](CC(=O)O)C(=O)N[C@H](C(=O)N[C@@H](Cc1c[nH]cn1)C(=O)N[C@@H](CC(N)=O)C(=O)N[C@@H](Cc1ccccc1)C(N)=O)C(C)C)C(C)C [[Cha^7,11, Aib^16]hPTH(1-34)NH2] (H-SVSEIQ[Cha]MHN[Cha]GKHL[Aib]SMERVEWLRKKLQDVHNF-NH2)
